Measurements reported in patent publication US20120101253A1, “STRUCTURED POLYCYCLIC PEPTIDE” (priority 2009, published 2012).
Where two headings read alike, the source gives them in different places. Residues, ends and D or L forms follow the SMILES beside them.

Experiments:
human plasma kallikrein [1] = biological target: T1, human plasma kallikrein (Homo sapiens, UniProt P03952); assay: Inhibition of human plasma kallikrein, fluorogenic substrate Z-Phe-Arg-AMC; format: biochemical; details: for inhibition of human plasma kallikrein, fold weaker than parental inhibitor PK15: tricyclic peptides
T1 construct: purchased Innovative Research, Southfiled, USA
Method: Fluorescence intensities were recorded for 1 hour with excitation and emission wavelengths of 355 nm and 460 nm on a fluorescence plate reader (Molecular Devices, Sunnyvale, USA).

[2] = biological target: T2, leucyl aminopeptidase from Aeromonas proteolytica (Vibrio proteolyticus, UniProt Q01693); assay: Aminopeptidase treatment of peptides (MALDI-TOF); format: in vitro ADME
T2 construct: purchased Sigma A8200
Method: Peptide 7 before (300 μM) and after (75 μM) MTGase treatment in reaction buffer was incubated with different amounts of leucyl aminopeptidase from Aeromonas proteolytica (EC 3.4.11.10; Sigma, A8200) (3 to 352 ng, corresponding to concentrations of about 50 nM to 6 μM) in a final volume of 2 μl for 30 min at RT. The mass of the peptides was determined by MALDI-TOF mass spectrometry.

MDM2 (res 2-125) = MDM2 (res 2-125) (Homo sapiens, UniProt Q00987); assay: Fluorescence anisotropy titration, binding to MDM2
Method: Titration experiments were run on a Horiba Jobin Yvon fluorimeter equipped with the Hamilton Microlab titrator controlled by laboratory software. […] The slit widths for excitation and emission were 5 nm and 15 nm and the integration time 10 s was used for each measurement. The intrinsic fluorescence of tryptophan in peptides 10, 48 was used to measure their binding affinity for MDM2 (res 2-125). The experiments were performed at 23C° in PBS, 5 mM DTT. Usually 250 μl of MDM2 (150 μM) was titrated into 1.2 ml of peptide (1 uM). Titration data were analyzed with a standard 1:1 binding model by using the quadratic solution to the equilibrium Kd=[A][B]/[AB]. […] The fitting equation contained an extra term to account for linear drift.

MDM2 peptide (res 2-125) = biological target: T3, MDM2 peptide (res 2-125) (Homo sapiens, UniProt Q00987); assay: Competition ELISA of PEP48 phage binding to MDM2; details: TBMB conjugate
T3 construct: biotinylated MDM2 peptide (res 2-125) was immobilized on a streptavidin-coated plate
Text: Phage was detected using an anti-M13-HRP monoclonal antibody (1:5000, Amersham).

human plasma kallikrein [3] = biological target: T1, human plasma kallikrein; details: Heinis et al., 2009; cited from earlier work
[4] = IC50 After MTGase cyclisation (tricyclic), tricyclic peptides after MTGase treatment
[5] = IC50 Before MTGase cyclisation (bicyclic), bicyclic TBMB conjugates

MDM2 (res 2-125), sequence (Q00987 2-125): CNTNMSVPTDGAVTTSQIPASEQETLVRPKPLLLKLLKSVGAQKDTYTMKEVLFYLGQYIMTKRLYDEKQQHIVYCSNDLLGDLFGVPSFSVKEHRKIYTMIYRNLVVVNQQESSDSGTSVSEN
T1 sequence (P03952 391-638 limits assumed): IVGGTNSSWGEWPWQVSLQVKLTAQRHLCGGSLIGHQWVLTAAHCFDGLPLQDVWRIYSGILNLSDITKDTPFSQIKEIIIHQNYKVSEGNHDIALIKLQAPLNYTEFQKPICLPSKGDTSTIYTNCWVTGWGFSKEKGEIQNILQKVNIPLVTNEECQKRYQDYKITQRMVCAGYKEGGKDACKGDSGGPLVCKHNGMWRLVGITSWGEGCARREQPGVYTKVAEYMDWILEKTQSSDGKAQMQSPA
T1 sequence (P03952 20-390 partner limits assumed): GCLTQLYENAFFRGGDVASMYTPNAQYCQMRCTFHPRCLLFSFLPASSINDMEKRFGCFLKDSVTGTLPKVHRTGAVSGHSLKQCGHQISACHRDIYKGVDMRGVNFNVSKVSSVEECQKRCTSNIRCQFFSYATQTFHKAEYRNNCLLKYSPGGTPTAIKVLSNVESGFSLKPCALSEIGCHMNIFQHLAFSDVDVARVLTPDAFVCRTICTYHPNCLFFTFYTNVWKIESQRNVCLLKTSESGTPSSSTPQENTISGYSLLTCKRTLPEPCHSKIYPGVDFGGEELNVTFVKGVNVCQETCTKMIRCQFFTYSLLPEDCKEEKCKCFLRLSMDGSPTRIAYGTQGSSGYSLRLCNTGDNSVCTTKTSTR
T2 sequence (Q01693 107-405 limits assumed): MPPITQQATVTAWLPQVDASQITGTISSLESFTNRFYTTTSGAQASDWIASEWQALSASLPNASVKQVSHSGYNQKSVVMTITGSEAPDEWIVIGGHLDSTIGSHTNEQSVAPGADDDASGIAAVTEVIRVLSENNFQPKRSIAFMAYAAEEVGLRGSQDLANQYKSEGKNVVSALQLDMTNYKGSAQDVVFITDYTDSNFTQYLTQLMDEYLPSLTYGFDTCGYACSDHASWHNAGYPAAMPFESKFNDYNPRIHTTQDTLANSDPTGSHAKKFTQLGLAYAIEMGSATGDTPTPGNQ
T3 sequence (Q00987 2-125): as the sequence (Q00987 2-125) above

CC(C)C[C@H](NC(=O)[C@H](C)N)C(=O)N[C@@H](CCC(N)=O)C(=O)N[C@@H](C)C(=O)N[C@H]1CSCc2cc3cc(c2)CSC[C@H](NC(=O)[C@H](CC(N)=O)NC(=O)[C@H](CCCNC(=N)N)NC(=O)[C@H](Cc2ccccc2)NC(=O)[C@H](CCCNC(=N)N)NC(=O)[C@H](CC(=O)O)NC(=O)[C@H](CO)NC1=O)C(=O)N1CCC[C@H]1C(=O)N[C@@H](C)C(=O)N[C@@H](CC(=O)O)C(=O)N[C@@H](CCC(=O)O)C(=O)N[C@@H](C)C(=O)N[C@@H](CC(C)C)C(=O)N[C@H](C(=O)N[C@@H](C)C(=O)N[C@@H](CCCCN)C(=O)N[C@@H](CO)C(N)=O)CSC3 [peptide 7] (HELM PEPTIDE1{A.L.Q.A.C.S.D.R.F.R.N.C.P.A.D.E.A.L.C.A.K.S.[am]}|CHEM1{[c1c(C[*:1])cc(C[*:3])cc1C[*:2]]}$PEPTIDE1,CHEM1,5:R3-1:R1|PEPTIDE1,CHEM1,12:R3-1:R2|PEPTIDE1,CHEM1,19:R3-1:R3$$$V2.0)
IC50 (human plasma kallikrein [1]; [4]): 200 nM | IC50 (human plasma kallikrein [1]; [5]): 259 nM | inhibition of human plasma kallikrein, fold weaker than parental inhibitor PK15 (human plasma kallikrein [1]): about 70 fold | amount of exopeptidase at which exocyclic amino acids (Ala-Leu-Gln-Ala) were degraded ([2]; bicyclic peptide, 30 min at RT): ≥ 70 ng | exopeptidase needed to degrade the Gln-Ala dipeptide ([2]; tricyclic peptide, compared with bicyclic): higher exopeptidease concentrations were required

CC(C)C[C@@H]1NC(=O)[C@H](CCC(=O)O)NC(=O)[C@@H](NC(=O)[C@@H](N)CO)CSCc2cc3cc(c2)CSC[C@H](NC(=O)[C@H](CCCCN)NC(=O)[C@@H]2CCCN2C(=O)[C@H](CC(N)=O)NC(=O)[C@H](Cc2c[nH]c4ccccc24)NC1=O)C(=O)N[C@@H](CCCNC(=N)N)C(=O)N[C@@H](CC(C)C)C(=O)N[C@@H](CO)C(=O)N1CCC[C@H]1C(=O)N[C@@H](Cc1ccccc1)C(=O)N[C@@H](CCC(=O)O)C(=O)N[C@H](C(=O)N[C@@H](CCCCN)C(=O)NCC(=O)O)CSC3 [PEP10] (HELM PEPTIDE1{S.C.E.L.W.N.P.K.C.R.L.S.P.F.E.C.K.G}|CHEM1{[c1c(C[*:1])cc(C[*:3])cc1C[*:2]]}$PEPTIDE1,CHEM1,2:R3-1:R1|PEPTIDE1,CHEM1,9:R3-1:R2|PEPTIDE1,CHEM1,16:R3-1:R3$$$V2.0; bridges inferred)
affinity of synthetic peptide for MDM2 (MDM2 (res 2-125)): micromolar or better

H-SCVRFGWTCDNSWHGCKG-OH (cysteine pairing not given here) [PEP48, bicyclic peptide selected against MDM2]
binding site on MDM2 by competition ELISA (MDM2 peptide (res 2-125)): bind to the same site as a linear peptide previously shown to block the p53-MDM2 interaction | affinity of synthetic peptide for MDM2 (MDM2 (res 2-125)): micromolar or better | Kd (MDM2 (res 2-125); entire bicyclic peptide, read-out: binding affinity (Kd) for MDM2): 500 to 800 nM | Kd (MDM2 (res 2-125); measured λex=280 nm, read-out: Kd, peptide + MDM2): 760 nM | Kd (MDM2 (res 2-125); measured λex=295 nm, read-out: Kd, peptide + MDM2): 567 nM

[H][C@@]12CCCN1C(=O)[C@]1([H])CSCc3cc(cc(c3)CSC[C@@H](C(=O)NCC(N)=O)NC(=O)[C@H](CC(C)C)NC(=O)[C@H](C)NC(=O)[C@H](CCC(=O)O)NC(=O)[C@H](CC(=O)O)NC(=O)[C@H](C)NC2=O)CSC[C@H](NC(=O)[C@H](C)N)C(=O)N[C@@H](CO)C(=O)N[C@@H](CC(=O)O)C(=O)N[C@@H](CCCNC(=N)N)C(=O)N[C@@H](Cc2ccccc2)C(=O)N[C@@H](CCCNC(=N)N)C(=O)N[C@@H](CC(N)=O)C(=O)N1 [PK15, reference compound] (HELM PEPTIDE1{A.C.S.D.R.F.R.N.C.P.A.D.E.A.L.C.G.[am]}|CHEM1{[c1c(C[*:1])cc(C[*:3])cc1C[*:2]]}$PEPTIDE1,CHEM1,2:R3-1:R1|PEPTIDE1,CHEM1,9:R3-1:R2|PEPTIDE1,CHEM1,16:R3-1:R3$$$V2.0)
factor of activity reduction on C-terminal conjugation to a protein (human plasma kallikrein [3]): around 10 | IC50 (human plasma kallikrein [1]; [5]): 3 nM

CC(C)C[C@@H]1NC(=O)[C@H](C)NC(=O)[C@H](CCC(=O)O)NC(=O)[C@H](CC(=O)O)NC(=O)[C@H](C)NC(=O)[C@@H]2CCCN2C(=O)[C@@H]2CSCc3cc(cc(c3)CSC[C@@H](C(=O)N[C@@H](C)C(=O)N[C@@H](CCCCN)C(=O)N[C@@H](CO)C(N)=O)NC1=O)CSC[C@H](NC(=O)[C@H](C)NC(=O)[C@H](CCC(N)=O)NC(=O)[C@H](CC(C)C)NC(=O)[C@H](C)NC(=O)[C@@H](N)Cc1c[nH]c3ccccc13)C(=O)N[C@@H](CO)C(=O)N[C@@H](CC(=O)O)C(=O)N[C@@H](CCCNC(=N)N)C(=O)N[C@@H](Cc1ccccc1)C(=O)N[C@@H](CCCNC(=N)N)C(=O)N[C@@H](CC(N)=O)C(=O)N2 [peptide 8] (HELM PEPTIDE1{W.A.L.Q.A.C.S.D.R.F.R.N.C.P.A.D.E.A.L.C.A.K.S.[am]}|CHEM1{[c1c(C[*:1])cc(C[*:3])cc1C[*:2]]}$PEPTIDE1,CHEM1,6:R3-1:R1|PEPTIDE1,CHEM1,13:R3-1:R2|PEPTIDE1,CHEM1,20:R3-1:R3$$$V2.0)
IC50 (human plasma kallikrein [1]; [4]): 196 nM | IC50 (human plasma kallikrein [1]; [5]): 185 nM | inhibition of human plasma kallikrein, fold weaker than parental inhibitor PK15 (human plasma kallikrein [1]): about 70 fold
